Test results taken from US20090138988A1, “MODIFICATION OF PLANT DISEASE RESISTANCE” (priority 2007, published 2009).

Tested on: P. syringae pv. tabaci
Assay: Squalene complementation of SQS1 RNAi line resistance to nonhost pathogen
Assay type: in vivo, Arabidopsis
Protocol: Squalene was supplied at the concentration as indicated above each panel when transplanting two-week old seedlings and thereafter watering. P. syringae pv. tabaci was infiltrated into leaves of four-week old plants at 1×10^7 cfu/ml. The inoculated plants were kept at 19-21° C. and covered to keep high humidity. Pictures were taken 3 days post inoculation
It was hypothesized that SQS1 RNAi lines would have less squalene compared to wild-type plants. Arabidopsis has two SQS genes: SQS1 and SQS2. T-DNA knockout lines for SQS2 are not available in SALK or GABI collections. Even though both SQS1 and SQS2 have more than 80% nucleotide identity, in the SQS1 RNAi line, only the transcripts of SQS1 was reduced but not SQS2 (FIG. 10). A brief pathway of sterol biosynthesis in plants and also other pathways that may be affected by silencing of SQS1 are shown in FIG. 11. […] It was therefore shown that squalene plays a critical role in conferring nonhost resistance against certain pathogens, and the role is recoverable in susceptible RNAi lines by squalene dosing.

CC(C)=CCC/C(C)=C/CC/C(C)=C/CC/C=C(\C)CC/C=C(\C)CCC=C(C)C [squalene]
recovery of nonhost resistance of SQS1 RNAi lines (10 μM squalene fed, P. syringae pv. tabaci 1×10^7 cfu/ml, 3 days post inoculation): completely recovered resistance phenotype back to wild-type levels
recovery of nonhost resistance of SQS1 RNAi lines (squalene fed at 1 μM to 10 μM, P. syringae pv. tabaci): recovered nonhost resistance in a dose dependent manner
